Results as given in BigSolDB 2.1.

O=C1OC[C@H]2[C@@H]1N(Cc1ccccc1)C(=O)N2Cc1ccccc1
Details | solubility (mole fraction)
in DMF, 293.15 K | 0.15
in DMF, 298.15 K | 0.163
in DMF, 303.15 K | 0.179
in DMF, 308.15 K | 0.196
in DMF, 312.65 K | 0.211
in DMF, 316.05 K | 0.224
in DMF, 320.35 K | 0.242
in THF, 293.35 K | 0.074
in THF, 298.15 K | 0.0845
in THF, 303.15 K | 0.0971
in THF, 308.15 K | 0.111
in THF, 313.05 K | 0.126
in THF, 318.15 K | 0.142
in THF, 323.25 K | 0.165
in dichloromethane, 293.25 K | 0.121
in dichloromethane, 296.45 K | 0.127
in dichloromethane, 299.35 K | 0.132
in dichloromethane, 302.25 K | 0.138
in dichloromethane, 305.45 K | 0.144
in dichloromethane, 308.15 K | 0.149
in dichloromethane, 311.35 K | 0.155
in ethyl acetate, 293.65 K | 0.0221
in ethyl acetate, 298.35 K | 0.0271
in ethyl acetate, 304.15 K | 0.0332
in ethyl acetate, 308.25 K | 0.0391
in ethyl acetate, 314.15 K | 0.0487
in ethyl acetate, 318.15 K | 0.0576
in ethyl acetate, 323.75 K | 0.0716
in methanol, 287.15 K | 0.0034
in methanol, 293.15 K | 0.0049
in methanol, 298.15 K | 0.0067
in methanol, 303.25 K | 0.0088
in methanol, 308.05 K | 0.0119
in methanol, 313.45 K | 0.016
in methanol, 318.15 K | 0.0211
in toluene, 291.15 K | 0.0073
in toluene, 298.15 K | 0.0101
in toluene, 303.05 K | 0.0125
in toluene, 308.65 K | 0.0157
in toluene, 313.25 K | 0.0197
in toluene, 317.95 K | 0.0242
in toluene, 323.75 K | 0.0316
